For six compounds, residual activity, EC50 and IC50 results are on record in ChEMBL document CHEMBL1268952, “Design, synthesis, and evaluation of indolinones as inhibitors of the transforming growth factor β receptor I (TGFβRI)” (J Med Chem, 2010).

Assay [1] concerns the target T1, Mitogen-activated protein kinase 13 (Homo sapiens) (UniProt O15264).
T1 sequence (whole entry): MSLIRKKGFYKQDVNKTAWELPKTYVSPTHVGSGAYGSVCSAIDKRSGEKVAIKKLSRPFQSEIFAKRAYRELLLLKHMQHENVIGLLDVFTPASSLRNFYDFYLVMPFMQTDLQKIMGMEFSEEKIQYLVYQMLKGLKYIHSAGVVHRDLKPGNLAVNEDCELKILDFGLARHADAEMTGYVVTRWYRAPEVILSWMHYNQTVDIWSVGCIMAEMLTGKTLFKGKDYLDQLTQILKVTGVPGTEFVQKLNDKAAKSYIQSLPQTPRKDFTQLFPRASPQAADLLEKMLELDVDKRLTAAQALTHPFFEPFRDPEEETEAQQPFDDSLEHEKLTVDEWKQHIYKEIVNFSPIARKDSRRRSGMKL
In words: Inhibition of p38delta at 1 uM; values are per cent of control.

Assay [2] concerns the target T2, TGF-beta receptor type-1 (Homo sapiens, UniProt P36897).
T2 sequence (P36897 whole entry): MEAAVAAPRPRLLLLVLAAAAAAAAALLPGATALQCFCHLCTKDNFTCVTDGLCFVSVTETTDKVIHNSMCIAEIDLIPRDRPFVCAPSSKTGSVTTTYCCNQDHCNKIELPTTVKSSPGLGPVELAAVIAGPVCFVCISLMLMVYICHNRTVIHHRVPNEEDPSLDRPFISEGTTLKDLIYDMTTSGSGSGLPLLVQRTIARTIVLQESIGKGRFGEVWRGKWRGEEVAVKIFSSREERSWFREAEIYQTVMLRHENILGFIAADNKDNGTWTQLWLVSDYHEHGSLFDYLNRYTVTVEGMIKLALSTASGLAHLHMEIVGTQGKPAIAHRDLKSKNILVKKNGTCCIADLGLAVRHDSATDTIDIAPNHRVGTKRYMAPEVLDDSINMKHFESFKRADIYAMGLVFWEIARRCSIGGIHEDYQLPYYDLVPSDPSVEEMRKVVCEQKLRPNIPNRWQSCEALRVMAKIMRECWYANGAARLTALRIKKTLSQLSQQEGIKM
In words: Inhibition of TGFbeta receptor in human HaCaT cells assessed as Smad phosphorylation by ELISA. It counts as cell-based. A general note: In an ELISA, binding on a coated surface is turned into a signal by an enzyme label.

The target in assay [3] is Dual specificity mitogen-activated protein kinase kinase 1 (Homo sapiens) (UniProt Q02750). In words: Inhibition of MKK1 at 1 uM; values are per cent of control.
Assay [4] has as its system HaCaT. Description: Cytotoxicity against human HaCaT cells.
For assay [5], the target named is Dual specificity mitogen-activated protein kinase kinase 2 (Homo sapiens) (UniProt P36507). In words: Inhibition of MKK2 at 1 uM; values are per cent of control.
In assay [6] the target is Ribosomal protein S6 kinase beta-1 (Homo sapiens) (UniProt P23443). In words: Inhibition of S6K1 at 1 uM; values are per cent of control.
The target of assay [7] is Mitogen-activated protein kinase 12 (Homo sapiens) (UniProt P53778). In words: Inhibition of p38-gamma at 1 uM; values are per cent of control.
Assay [8] has as its target T2, TGF-beta receptor type-1. In words: Inhibition of TGFbeta receptor.
The target in assay [9] is Ribosomal protein S6 kinase alpha-5 (Homo sapiens) (UniProt O75582). In words: Inhibition of MSK1 at 1 uM; values are per cent of control.
Assay [10] concerns the target Cyclin-dependent kinase 2/cyclin A (Homo sapiens) (UniProt P24941+P20248+P78396). In words: Inhibition of CDK2/cyclin A at 1 uM; values are per cent of control.
Assay [11] deals with Mitogen-activated protein kinase 11 (Homo sapiens) (UniProt Q15759). Description: Inhibition of p38beta2 at 1 uM; values are per cent of control.
For assay [12], the target named is T3, MAP kinase-activated protein kinase 5 (Homo sapiens) (UniProt Q8IW41).
T3 sequence (whole entry): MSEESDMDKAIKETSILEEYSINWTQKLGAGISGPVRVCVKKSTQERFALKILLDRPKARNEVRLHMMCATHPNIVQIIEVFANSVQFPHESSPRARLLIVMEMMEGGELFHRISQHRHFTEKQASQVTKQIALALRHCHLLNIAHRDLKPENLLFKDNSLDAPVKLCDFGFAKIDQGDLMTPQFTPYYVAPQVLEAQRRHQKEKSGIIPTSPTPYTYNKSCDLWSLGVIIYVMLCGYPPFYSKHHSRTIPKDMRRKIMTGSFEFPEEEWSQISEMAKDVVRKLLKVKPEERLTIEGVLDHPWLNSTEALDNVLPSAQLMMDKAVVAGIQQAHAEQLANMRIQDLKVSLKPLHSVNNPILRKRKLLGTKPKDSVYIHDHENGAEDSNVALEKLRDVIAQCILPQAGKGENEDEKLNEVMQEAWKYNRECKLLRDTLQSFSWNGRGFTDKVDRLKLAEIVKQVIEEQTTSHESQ
Description: Inhibition of PRAK at 1 uM; values are per cent of control.

For assay [13], the target named is T4, Serine/threonine-protein kinase Nek2 (Homo sapiens) (UniProt P51955).
T4 sequence (whole entry): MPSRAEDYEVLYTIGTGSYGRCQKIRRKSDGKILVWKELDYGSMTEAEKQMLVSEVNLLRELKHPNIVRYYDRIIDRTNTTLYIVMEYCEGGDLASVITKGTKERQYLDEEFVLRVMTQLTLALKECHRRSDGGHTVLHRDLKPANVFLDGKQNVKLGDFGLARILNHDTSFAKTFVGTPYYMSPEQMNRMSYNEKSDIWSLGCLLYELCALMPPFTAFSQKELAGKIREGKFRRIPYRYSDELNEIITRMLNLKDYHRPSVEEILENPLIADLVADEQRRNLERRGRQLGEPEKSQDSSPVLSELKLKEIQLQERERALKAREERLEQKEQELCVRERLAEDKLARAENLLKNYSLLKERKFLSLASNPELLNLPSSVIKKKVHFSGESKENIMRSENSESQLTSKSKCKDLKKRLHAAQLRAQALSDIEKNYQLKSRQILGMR
Description: Inhibition of NEK2A at 1 uM; values are per cent of control.

The target of assay [14] is Proto-oncogene tyrosine-protein kinase Src (Homo sapiens) (UniProt P12931). Description: Inhibition of Src at 2 uM.
The target of assay [15] is Platelet-derived growth factor receptor alpha (Homo sapiens, UniProt P16234). In words: Inhibition of PDGFRalpha.
Assay [16] deals with Bone morphogenetic protein receptor type-2 (Homo sapiens, UniProt Q13873). In words: Inhibition of BMPR2.
Assay [17] has as its target TGF-beta receptor type-2 (Homo sapiens, UniProt P37173). In words: Inhibition of TGFbeta2 receptor.

In general, EC50 refers to the concentration at which the effect is half-maximal. Usually IC50 stands for the concentration needed to halve the response being measured. A higher IC50 goes with weaker potency.

Ribosomal protein S6 kinase alpha-5 (Homo sapiens), sequence (O75582 whole entry, looked up): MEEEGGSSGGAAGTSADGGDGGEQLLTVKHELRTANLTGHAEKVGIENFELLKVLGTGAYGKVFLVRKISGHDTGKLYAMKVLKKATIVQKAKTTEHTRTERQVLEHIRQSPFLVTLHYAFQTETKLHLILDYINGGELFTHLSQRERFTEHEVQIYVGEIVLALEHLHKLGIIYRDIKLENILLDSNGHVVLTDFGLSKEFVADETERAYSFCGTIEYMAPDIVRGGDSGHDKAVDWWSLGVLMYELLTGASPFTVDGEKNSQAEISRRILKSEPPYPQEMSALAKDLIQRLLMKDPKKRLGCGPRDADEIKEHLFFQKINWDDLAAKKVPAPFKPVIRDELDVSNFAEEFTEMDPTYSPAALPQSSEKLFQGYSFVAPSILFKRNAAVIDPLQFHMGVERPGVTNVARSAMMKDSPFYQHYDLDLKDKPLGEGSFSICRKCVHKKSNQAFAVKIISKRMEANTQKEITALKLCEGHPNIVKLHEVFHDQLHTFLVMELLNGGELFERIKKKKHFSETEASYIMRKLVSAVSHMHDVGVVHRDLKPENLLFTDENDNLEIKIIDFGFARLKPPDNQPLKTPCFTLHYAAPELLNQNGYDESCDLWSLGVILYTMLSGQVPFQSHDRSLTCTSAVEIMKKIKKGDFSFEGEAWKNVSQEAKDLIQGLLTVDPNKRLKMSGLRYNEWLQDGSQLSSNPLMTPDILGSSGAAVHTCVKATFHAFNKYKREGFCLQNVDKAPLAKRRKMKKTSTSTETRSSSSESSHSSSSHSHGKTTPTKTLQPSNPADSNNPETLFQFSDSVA
Proto-oncogene tyrosine-protein kinase Src (Homo sapiens), sequence (P12931 2-536 limits assumed): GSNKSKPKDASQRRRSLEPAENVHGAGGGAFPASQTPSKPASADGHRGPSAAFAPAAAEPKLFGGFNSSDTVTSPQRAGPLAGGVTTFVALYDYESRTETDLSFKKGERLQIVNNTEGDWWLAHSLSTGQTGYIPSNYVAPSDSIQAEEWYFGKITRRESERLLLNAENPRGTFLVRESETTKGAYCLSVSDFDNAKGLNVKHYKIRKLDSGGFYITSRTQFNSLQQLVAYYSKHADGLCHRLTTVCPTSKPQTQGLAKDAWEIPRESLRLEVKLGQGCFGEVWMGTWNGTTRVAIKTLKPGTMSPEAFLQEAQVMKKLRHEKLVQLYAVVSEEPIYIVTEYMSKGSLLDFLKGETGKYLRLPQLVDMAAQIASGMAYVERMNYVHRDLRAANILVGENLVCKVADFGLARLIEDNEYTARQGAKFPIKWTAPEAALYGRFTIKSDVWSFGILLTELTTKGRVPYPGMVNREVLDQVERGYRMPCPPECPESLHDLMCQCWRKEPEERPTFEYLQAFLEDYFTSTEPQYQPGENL
Ribosomal protein S6 kinase beta-1 (Homo sapiens), sequence (P23443 whole entry, looked up): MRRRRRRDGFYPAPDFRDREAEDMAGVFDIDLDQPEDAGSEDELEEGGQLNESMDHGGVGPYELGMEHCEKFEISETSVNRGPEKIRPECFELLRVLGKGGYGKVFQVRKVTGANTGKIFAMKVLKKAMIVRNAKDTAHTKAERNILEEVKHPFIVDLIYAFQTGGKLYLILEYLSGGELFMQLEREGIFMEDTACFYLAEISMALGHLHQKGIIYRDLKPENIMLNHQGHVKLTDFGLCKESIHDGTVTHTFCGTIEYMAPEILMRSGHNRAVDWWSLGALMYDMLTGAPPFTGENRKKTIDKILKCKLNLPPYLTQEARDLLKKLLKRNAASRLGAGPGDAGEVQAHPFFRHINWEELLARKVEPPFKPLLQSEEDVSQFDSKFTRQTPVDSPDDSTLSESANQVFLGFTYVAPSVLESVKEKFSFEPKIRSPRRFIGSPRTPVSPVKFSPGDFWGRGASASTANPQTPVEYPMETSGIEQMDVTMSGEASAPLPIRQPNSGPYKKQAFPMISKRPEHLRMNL
Platelet-derived growth factor receptor alpha, sequence (P16234 whole entry): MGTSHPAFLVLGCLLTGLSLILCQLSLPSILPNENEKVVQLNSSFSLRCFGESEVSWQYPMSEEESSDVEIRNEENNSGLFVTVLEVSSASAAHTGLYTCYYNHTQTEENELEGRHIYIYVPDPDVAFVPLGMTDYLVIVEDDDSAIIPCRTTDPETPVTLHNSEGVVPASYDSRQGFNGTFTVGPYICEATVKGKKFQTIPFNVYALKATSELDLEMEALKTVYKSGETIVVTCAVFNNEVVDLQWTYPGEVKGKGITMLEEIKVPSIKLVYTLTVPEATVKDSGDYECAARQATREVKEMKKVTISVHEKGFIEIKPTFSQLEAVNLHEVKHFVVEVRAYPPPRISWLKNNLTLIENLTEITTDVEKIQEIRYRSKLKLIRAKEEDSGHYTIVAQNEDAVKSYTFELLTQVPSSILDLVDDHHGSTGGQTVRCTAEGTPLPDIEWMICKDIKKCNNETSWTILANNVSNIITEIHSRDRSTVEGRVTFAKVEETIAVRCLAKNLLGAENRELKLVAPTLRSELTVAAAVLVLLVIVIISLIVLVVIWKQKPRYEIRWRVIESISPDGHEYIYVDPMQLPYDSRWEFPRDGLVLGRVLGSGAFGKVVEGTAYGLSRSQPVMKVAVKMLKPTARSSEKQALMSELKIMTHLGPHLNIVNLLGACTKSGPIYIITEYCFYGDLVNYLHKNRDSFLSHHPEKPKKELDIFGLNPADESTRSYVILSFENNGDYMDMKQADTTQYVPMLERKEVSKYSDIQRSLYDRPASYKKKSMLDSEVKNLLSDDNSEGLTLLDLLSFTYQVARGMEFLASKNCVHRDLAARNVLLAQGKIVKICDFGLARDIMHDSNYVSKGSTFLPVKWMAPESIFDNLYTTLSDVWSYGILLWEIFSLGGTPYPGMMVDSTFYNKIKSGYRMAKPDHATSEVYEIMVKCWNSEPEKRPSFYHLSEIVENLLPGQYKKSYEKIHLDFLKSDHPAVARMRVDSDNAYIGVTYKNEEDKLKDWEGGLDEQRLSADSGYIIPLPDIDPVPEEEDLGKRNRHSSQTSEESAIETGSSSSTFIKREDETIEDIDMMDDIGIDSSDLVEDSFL
Dual specificity mitogen-activated protein kinase kinase 1 (Homo sapiens), sequence (Q02750 whole entry): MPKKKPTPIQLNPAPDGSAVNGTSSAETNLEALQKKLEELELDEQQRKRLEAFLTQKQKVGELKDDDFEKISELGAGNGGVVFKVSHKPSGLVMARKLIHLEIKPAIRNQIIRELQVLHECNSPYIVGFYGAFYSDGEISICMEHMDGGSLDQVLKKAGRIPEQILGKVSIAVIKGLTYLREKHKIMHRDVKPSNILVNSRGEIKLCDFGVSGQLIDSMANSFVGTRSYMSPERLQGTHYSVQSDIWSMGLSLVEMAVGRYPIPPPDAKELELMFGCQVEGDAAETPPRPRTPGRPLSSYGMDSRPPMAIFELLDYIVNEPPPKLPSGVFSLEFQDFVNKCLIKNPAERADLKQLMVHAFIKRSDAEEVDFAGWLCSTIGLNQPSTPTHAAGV
Dual specificity mitogen-activated protein kinase kinase 2 (Homo sapiens), sequence (P36507 whole entry): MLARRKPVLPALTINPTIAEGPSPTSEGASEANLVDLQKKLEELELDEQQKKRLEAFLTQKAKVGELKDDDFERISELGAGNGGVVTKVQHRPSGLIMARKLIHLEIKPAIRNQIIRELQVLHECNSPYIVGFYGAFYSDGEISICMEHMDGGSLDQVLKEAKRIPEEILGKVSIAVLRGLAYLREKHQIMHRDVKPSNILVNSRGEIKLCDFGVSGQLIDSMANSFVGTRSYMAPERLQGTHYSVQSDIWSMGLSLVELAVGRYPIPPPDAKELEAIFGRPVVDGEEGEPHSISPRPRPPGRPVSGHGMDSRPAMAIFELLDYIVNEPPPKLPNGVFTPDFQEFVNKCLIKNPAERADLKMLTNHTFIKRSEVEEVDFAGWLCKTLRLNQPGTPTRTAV
Mitogen-activated protein kinase 11 (Homo sapiens), sequence (Q15759 whole entry): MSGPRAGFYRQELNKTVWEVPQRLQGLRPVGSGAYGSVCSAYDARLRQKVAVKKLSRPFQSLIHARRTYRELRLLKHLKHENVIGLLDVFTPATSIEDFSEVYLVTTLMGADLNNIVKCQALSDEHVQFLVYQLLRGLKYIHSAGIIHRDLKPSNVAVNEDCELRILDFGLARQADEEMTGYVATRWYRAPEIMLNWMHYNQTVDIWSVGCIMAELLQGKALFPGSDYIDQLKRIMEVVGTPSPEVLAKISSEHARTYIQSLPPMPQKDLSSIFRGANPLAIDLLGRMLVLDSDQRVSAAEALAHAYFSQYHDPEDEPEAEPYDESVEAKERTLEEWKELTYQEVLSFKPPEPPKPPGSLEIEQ
Mitogen-activated protein kinase 12 (Homo sapiens), sequence (P53778 whole entry): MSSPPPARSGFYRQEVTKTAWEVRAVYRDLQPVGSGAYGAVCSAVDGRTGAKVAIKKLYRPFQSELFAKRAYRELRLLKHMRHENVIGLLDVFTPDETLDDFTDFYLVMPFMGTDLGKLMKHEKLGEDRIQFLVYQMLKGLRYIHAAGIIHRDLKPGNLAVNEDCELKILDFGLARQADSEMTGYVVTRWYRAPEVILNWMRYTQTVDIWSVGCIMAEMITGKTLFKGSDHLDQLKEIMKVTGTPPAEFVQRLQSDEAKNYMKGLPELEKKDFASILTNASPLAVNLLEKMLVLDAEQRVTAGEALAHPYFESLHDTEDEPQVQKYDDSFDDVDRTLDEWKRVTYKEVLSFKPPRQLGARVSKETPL

For `CN(C)C(=O)c1ccc2c(c1)/C(=C(/Nc1ccc(CN3CCCCC3)cc1)c1ccccc1)C(=O)N2`, the residual activity was 99% in [1]; 12% in [3]; 94% in [5]; 76% in [6]; 91% in [7]; 36% in assay [9]. Besides, the residual activity in [10] worked out at 39%; in assay [11] it was 100%; in assay [12], 59%; in assay [13], 81%. Also, the EC50 in [2] came to 198 nM. The IC50 in [4] was > 1000 nM; in assay [8] it was 186 nM.

Turning to `CCNCc1ccc(N/C(=C2\C(=O)Nc3cc(C(=O)N(C)CC)ccc32)c2ccccc2)cc1`, the residual activity in [1] was found to be 86%; in [3], 61%; in assay [5] it was 97%; in assay [6], 89%; in [14] it was 61%; in assay [9] it was 83%. Besides, the residual activity was found to be 87% in assay [10], 70% in assay [12] and 72% in assay [13]. In assay [2], the EC50 was found to be 160 nM. The IC50 was > 1000 nM in assay [4], 32 nM in [8] and 1100 nM in assay [15].

Consider `CCN(C)C(=O)c1ccc2c(c1)NC(=O)/C2=C(\Nc1ccc(CN2CCCCC2)cc1)c1ccccc1`, for which the residual activity in assay [1] amounted to 108%; in assay [3] it was 48%; in [5], 102%; in assay [6], 96%; in [7] it was 93%; in assay [14], 86%. Moreover, the residual activity was determined as 92% in assay [9]; 110% in [10]; 98% in assay [11]; 87% in [12]; 96% in assay [13]. Besides, the EC50 in assay [2] stood at 105 nM. Besides, the IC50 in assay [4] was > 1000 nM; in assay [16], > 50000 nM; in assay [17], 19000 nM; in assay [15], 890 nM.

Take `CCNC(=O)c1ccc2c(c1)NC(=O)/C2=C(\Nc1ccc(N(CCN(C)C)S(C)(=O)=O)cc1)c1ccccc1`: the EC50 in [2] was determined as 108 nM. In addition, the residual activity came out at 53% in [3]; 100% in [6]; 105% in assay [9]; 100% in [10]; 67% in [12]; 70% in assay [13]. Moreover, the IC50 in [8] amounted to 1 nM; in assay [15], 74 nM.

For the compound `CCNC(=O)c1ccc2c(c1)NC(=O)/C2=C(\Nc1ccc(CN(C)C)cc1)c1ccccc1`, the concentration for a half-maximal effect (EC50) in assay [2] amounted to 185 nM. In addition, the residual activity in [3] came out at 59%; in assay [6], 101%; in assay [14], 86%; in assay [9], 104%; in [10], 103%; in assay [12], 96%. The residual activity in [13] was found to be 98%. Also, the IC50 in [4] is > 1000 nM; in assay [8], 19 nM; in assay [15], 99 nM.

`O=C1Nc2ccccc2/C1=C(/Nc1ccc(CN2CCCCC2)cc1)c1ccccc1`: the residual activity in assay [3] stood at 4%; in assay [5], 75%; in assay [6], 12%; in [9], 8%; in assay [10], 38%; in [12] it was 38%. The residual activity in assay [13] was determined as 39%. This compound also showed an IC50 in [8] of 3460 nM.
